# “Also recorded” adds a separate entry of the source. No end group written: not given here.
# Key:
# CST-KO mice = assay: ITT in insulin resistant CST-KO mice with CST, RI-CST or NSC-177941; format: in vivo; conditions: ITT in CST-KO mice
# Text: FIG. 16. […] Figures in parentheses indicate number of animals.
# [1] = reference (8); cited from earlier work
# Ob/Ob mice = assay: CST administration to Ob/Ob mice for 16 days; format: in vivo
# Protocol: FIG. 7. Effects of CST administration to DIO and Ob/Ob mice on food intake, body weight, adipose tissue weight, and lipolysis. CST (5 μg/g BW, i.p./day) or saline was administered to DIO and Ob/Ob mice for 16 days. Food intake for DIO mice (A) and Ob/Ob mice (B) was measured every other day. Percent changes in final body weight and WAT mass (as % of body weight) were determined for DIO (C) and Ob/Ob (D) mice. Plasma glycerol (E) and NEFA (F) were quantified for DIO and Ob/Ob mice at the end of CST treatment.
# Adult male (7 month old) WT (31.8±1.2 g) and Chga-KO (39.2±1.5 g) mice in the mixed genetic background (129SvJ×C57BL/6) were studied. Both genotypes were generated from the original founder carrying mixed genotype (50% 129SvJ, 50% C57BL/6) and were maintained by sibling mating. Animals were kept in a 12 hr dark/light cycle and fed standard chow ad libitum. Male C57BL/6 mice, 8 week old, were fed 60% high fat diet (D12492: Research Diets, Inc., New Brunswick) for 16 weeks before using for experiments. Male leptin-deficient (C57BL/6J-Ob/Ob) mice from the Jackson Laboratory were maintained on a standard chow diet. The Institutional Animal Care and Utilization Committee approved all procedures. Chga-KO, DIO and Ob/Ob mice were treated daily with saline or CST (5 μg/g BW, i.p.; 12 days for Chga-KO mice and 16 days for DIO and Ob/Ob mice).
# (§1) Mice were fasted for 12 hr prior to blood draw. Triglycerides (TG) and non-esterified fatty acids (NEFA) were assayed using kits from Wako Diagnostics (Richmond, Va.). Glycerol was assayed using a kit from Sigma (St Louis, Mo.). Media from the explant cultures and mouse serum were analysed for glycerol and NEFA as a measure of lipolysis. ELISA kits were used to determine plasma levels of leptin, adiponectin (Millipore, Billerica, Mass.) and CST (Bachem, Torrance, Calif.). For CST assay, plasma samples and reference standards were passed through mini C18 columns and the flow-through fractions were assayed. The same kits were used for measurements in culture media.
# [2] = tested on: PC-12 neuroendocrine cells; assay: cAMP production in PC-12 cells; format: cell-based
# phospholipase C (PLC) = conditions: 3T3-L1 adipocytes
# Protocol: FIG. 5. Regulation of adrenergic signaling by CST as measured by cAMP production, phospholipase C activity, and lipolytic glycerol release. (A) Effects of CST (100 nM, 10 min) on cAMP production in PC-12 and 3T3-L1 cells pretreated with saline or isoproterenol (ISO) (10 μM) for 10 min. (B) Effects of CST on phospholipase C activity in 3T3-L1 adipocytes pretreated with phenylephrine or epinephrine (10 μM for 10 min). (C) Effects of CST on glycerol release from adipocytes pretreated with ISO, phenylephrine (PEP), and phentolamine (PTA) (10 μM for 10 min).
# HFD-fed WT mice = assay: CST treatment of HFD-fed WT mice; format: in vivo
# Text: FIG. 12. Metabolic phenotypes in HFD-fed CST-KO mice. (A) CST-KO mice eat more 60% HFD than WT. (B) CST-KO mice gained more weight than WT. (C) Heightened glucose resistance at baseline in CST-KO mice compared to WT mice. […] Figures in parentheses indicate number of animals.
# primary adipocytes = assay: Lipolytic glycerol release from primary adipocytes; format: cell-based, mice
# Protocol: as §1
# Primary adipocytes were isolated from epididymal fat pads essentially as described (43). Adipose tissues from WT and Chga-KO mice were minced in Krebs-Ringer bicarbonate-Hepes (KRBH) buffer, pH 7.4, containing 10 mM bicarbonate, 30 mM Hepes, 200 nM adenosine, 2.5 mM glucose and 1% fatty-acid-free BSA, and digested for 30-40 min with Type I collagenase (10 mg/g tissue; Invitrogen, Carlsbad, Calif.) with gentle swirling in a 37° C. incubator. The digestion mixture was then filtered through a nylon strainer and centrifuged at 400×g for 1 min. The oily layer (released from broken cells) above floating fat cells was skimmed off, and fat cells were recovered from the top and washed three times with warm KRBH.
sequence,measurement,setting,value
SSMKLSFRARAYGFRGPGPQL [CST],persistence of the insulin-sensitizing effect,CST-KO mice,persisted throughout the experimental period
same,protease degradation,[1],susceptible to complete protease degradation
same,food intake,Ob/Ob mice; CST 5 μg/g BW i.p./day 16 days,started to level off
same,adipose tissue mass,Ob/Ob mice; CST 16 days,not reflected in any decrease in body weight or adipose tissue mass
same,body weight,Ob/Ob mice; CST 16 days,not reflected in any decrease in body weight
same,plasma concentration of NEFA (lipolysis),Ob/Ob mice; CST 16 days,not affected
same,plasma concentration of glycerol (lipolysis),Ob/Ob mice; CST 16 days,not affected
same,basal or isoproterenol-induced cAMP levels,[2],did not modulate
same,cAMP production,"[2]; CST 100 nM, ISO 10 μM, 10 min",not by CST
same,"PLC activity, substance by itself",phospholipase C (PLC),mildly stimulates PLC
same,PLC activation by epinephrine,phospholipase C (PLC); epinephrine 10 μM 10 min,attenuated
same,PLC activation by phenylephrine,phospholipase C (PLC); phenylephrine 10 μM 10 min,attenuated
same,basal plasma insulin level,HFD-fed WT mice,decreased; also recorded: reduced hyperinsulinemia
same,insulin sensitivity,HFD-fed WT mice,improvement in insulin sensitivity; also recorded: sensitive to insulin
same,effect on the lipolytic effect of isoproterenol,"primary adipocytes; adipocytes, with isoproterenol 10 μM",potentiated
same,glycerol release (lipolysis),"primary adipocytes; primary adipocytes, substance alone",stimulated glycerol release
